Measured values from PubChem BioAssay (NCI).
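These data come from cells grown in 96-well plates and exposed to compound for 48 hours at five concentrations. The concentration for 50% growth inhibition is given as GI50. The concentration for full growth arrest is given as TGI.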

Columns and labels:
Assay in all cases: NCI-60 cell line screen, 48 h
HCT-15 colon = system: HCT-15 colon
HL-60(TB) leukemia = system: HL-60(TB) leukemia
HOP-62 NSCLC = system: HOP-62 NSCLC
HT29 colon = system: HT29 colon
NCI-H522 lung = system: NCI-H522 lung
NCI/ADR-RES ovarian = system: NCI/ADR-RES ovarian
OVCAR-5 ovarian = system: OVCAR-5 ovarian
SNB-19 CNS = system: SNB-19 CNS
TK-10 renal = system: TK-10 renal
UO-31 renal = system: UO-31 renal

Row | Structure (SMILES) | GI50 (HCT-15 colon) [µM] | TGI (HCT-15 colon) [µM] | GI50 (HL-60(TB) leukemia) [µM] | TGI (HL-60(TB) leukemia) [µM] | GI50 (HOP-62 NSCLC) [µM] | TGI (HOP-62 NSCLC) [µM] | GI50 (HT29 colon) [µM] | GI50 (NCI-H522 lung) [µM] | TGI (NCI-H522 lung) [µM] | GI50 (NCI/ADR-RES ovarian) [µM] | TGI (NCI/ADR-RES ovarian) [µM] | GI50 (OVCAR-5 ovarian) [µM] | TGI (OVCAR-5 ovarian) [µM] | GI50 (SNB-19 CNS) [µM] | TGI (SNB-19 CNS) [µM] | GI50 (TK-10 renal) [µM] | TGI (TK-10 renal) [µM] | GI50 (UO-31 renal) [µM] | TGI (UO-31 renal) [µM] | TGI (HT29 colon) [µM]
1 | O=C1OCC2=C1C(c1ccccc1)c1cc3c(cc1N2CCO)CCC3 (centres undefined) | 0.103 | > 25 | 0.0871 | 1.94 | 0.131 | > 25 | 0.0878 | 0.0284 | 0.119 | 0.0521 | 0.139 | 0.203 | > 25 | 0.119 | > 12.9 | 1.52 | > 25 | 0.117 | > 20.1 | –
2 | C[CH2][Sn]1([CH2]C)[O]C2C(O)OC(CO)C(O)C2[O]1 (centres undefined) | 60.3 | > 100 | 16.5 | 39.1 | > 100 | > 100 | 65 | 3.95 | 22.2 | > 100 | > 100 | 20.8 | 47.3 | 50.5 | > 100 | 18.4 | 36.5 | 68.7 | > 100 | > 100
3 | CCOc1ccc(/C=N/Nc2cc(C)nc3ccc(Cl)cc23)cc1 | 1.55 | 2.94 | 1.86 | 3.73 | 2.31 | 6.53 | 1.9 | 1.73 | 3.29 | 1.9 | 3.86 | 1.97 | 3.5 | 2.37 | 5.07 | 1.91 | 3.37 | 1.63 | 2.98 | 3.47
4 | CNC(=O)c1cc(Oc2ccc3nc(NC(=O)c4cc(C(F)(F)F)cc(C(F)(F)F)c4)sc3c2)ccn1 | 3.97 | 25.1 | 2.49 | 5.11 | 3.36 | 10.8 | 3.85 | 2.82 | 8.77 | 3.67 | 19.1 | 4.23 | 25 | 3.76 | 22.8 | 3.37 | 13.3 | 2.19 | 8.95 | 16.8
5 | CCCCCCCCCCCCCCCCCC(=O)[O][Sn]([CH2]CCC)([CH2]CCC)[CH2]CCC | 0.146 | 0.38 | 0.179 | 0.489 | 0.158 | 0.332 | 0.113 | 0.14 | 0.318 | 0.177 | 0.438 | 0.137 | 0.34 | 0.167 | 0.338 | 0.164 | 0.311 | 0.161 | 0.34 | 0.311
6 | COC(=O)c1c2c(c[n+]([O-])c1C)C(=O)C(NCc1ccccc1)=CC2=O | 0.354 | 1.53 | 0.256 | 0.667 | 1.42 | 2.94 | 0.43 | 0.31 | 1.57 | 0.302 | 1.37 | 1.2 | 2.57 | 1.46 | 2.77 | 3.17 | 7.07 | 1.25 | 2.58 | > 20.3
